Source: US20230277508A1, “USE OF COMPOUND AS CYP2E1 INHIBITOR” (SHANGHAI LING XI BIOTECHNOLOGY DEVELOPMENT CO., LTD., priority 2020, published 2023)

Assays:
Assay type in all cases: biochemical
[1] = molecular target: T1, human liver microsome CYP2E1 (Homo sapiens, UniProt P05181); test: Determination of IC50 for a CYP2E1 inhibitory effect (CZX probe, mixed liver microsome); conditions: for inhibitory effect on CYP2E1 (in words): in vitro, method of Example 8; for IC50: mixed liver microsome of healthy individuals 0.3 mg/mL, 62.5 μM CZX, 1 mM NADPH, 30 min, read-out: IC50 for 2E1 inhibition
T1 construct: metabolic activity of a mixed liver microsome CYP2E1 of a healthy individual; from tissue; host or cells: mixed (pooled) human liver microsomes of healthy individuals
Protocol: CZX was used as a probe substrate to detect an inhibitory effect of an inhibitor to be tested on the metabolic activity of a mixed liver microsome CYP2E1 of a healthy individual (IC50: half inhibition concentration; Ki: inhibition constant; the smaller the IC50 and the smaller the Ki, the higher the inhibition intensity of the inhibitor), thereby determining an inhibitory effect of the inhibitor to be tested on the human liver microsome CYP2E1.
An incubation system in a total volume of 100 μL was adopted, including a substrate, an inhibitor of different concentrations, a liver microsomal protein, and phosphate-buffered saline (PBS). The incubation system was pre-incubated in a 37° C. water bath for 5 min, reduced coenzyme was added to allow a reaction for 30 min, and then the reaction was terminated in an ice bath. In a specific experiment, a concentration of an inhibitor can be selected as required.
In this example, the incubation system includes 62.5 μM CZX, 100 mM (pH=7.4) PBS, 0.3 mg/mL liver microsomal protein, and 1 mM NADPH.
In this example, the reaction is terminated with 1 mL of ethyl acetate. In other preferred examples, the reaction may also be terminated with 1 mL of methyl tert-butyl ether (MTBE), 1 mL of diethyl ether, or 100 μL of methanol.

CYP2C9 = molecular target: T2, CYP2C9 (Homo sapiens, UniProt P11712); test: Determination of selectivity of a CYP2E1 inhibitor: CYP2C9; conditions: mixed human liver microsome, 250 μM tolbutamide probe; read-out: IC50 of the inhibition for CYP2C9
T2 construct: With a mixed liver microsome of a healthy individual as a research object; from tissue; host or cells: mixed (pooled) human liver microsomes of healthy individuals
Excerpt: (§1) With a mixed liver microsome of a healthy individual as a research object, probe drugs CYP1A2, CYP2A6, CYP2B6, CYP2C8, CYP2C9, CYP2C19, CYP2D6, CYP2E1, and CYP3A4 were selected to determine an in vitro inhibitory effect of an inhibitor to be tested on the metabolism of the probe drugs CYP1A2, CYP2A6, CYP2B6, CYP2C8, CYP2C9, CYP2C19, CYP2D6, CYP2E1, and CYP3A4 for the mixed liver microsome of the healthy human, and the selectivity of the inhibitor to be tested for a CYP2E1 inhibitory effect was evaluated.
(§2) The CYP1A2 probe is 6.25 μM to 800 μM phenacetin or 27.5 μM to 12,520 μM caffeine; • the CYP2A6 probe is 0.156 μM to 20 μM coumarin or 12.5 μM to 2,000 μM nicotine; • the CYP2B6 probe is 7.8 μM to 500 μM bupropion or 0.25 mM to 30 mM cyclophosphamide; • the CYP2C8 probe is 2.5 μM to 80 μM paclitaxel or 0.125 μM to 128 μM amodiaquine; • the CYP2C9 probe is 31.25 μM to 2,000 μM tolbutamide or 0.1 μM to 200 μM diclofenac; • the CYP2C19 probe is 3.9 μM to 500 μM omeprazole or 1.95 μM to 1,000 μM mephenytoin; • the CYP2D6 probe is 0.625 μM to 96 μM dextromethorphan or 0.0195 μM to 80 μM propafenone; and • the CYP3A4 probe is 0.39 μM to 50 μM midazolam or 1.98 μM to 1,000 μM testosterone.
(§3) An incubation system in a total volume of 100 μL was adopted, including a substrate, an inhibitor of different concentrations, a liver microsomal protein, and PBS. […]

CYP2A6 = molecular target: T3, CYP2A6 (Homo sapiens, UniProt P11509); test: Determination of selectivity of a CYP2E1 inhibitor: CYP2A6; conditions: mixed human liver microsome, 2.5 μM coumarin probe; read-out: IC50 for 2A6 inhibition
T3 construct: With a mixed liver microsome of a healthy individual as a research object; from tissue; host or cells: mixed (pooled) human liver microsomes of healthy individuals
Excerpt: as §1, §2, §3

T1 sequence (P05181 whole entry): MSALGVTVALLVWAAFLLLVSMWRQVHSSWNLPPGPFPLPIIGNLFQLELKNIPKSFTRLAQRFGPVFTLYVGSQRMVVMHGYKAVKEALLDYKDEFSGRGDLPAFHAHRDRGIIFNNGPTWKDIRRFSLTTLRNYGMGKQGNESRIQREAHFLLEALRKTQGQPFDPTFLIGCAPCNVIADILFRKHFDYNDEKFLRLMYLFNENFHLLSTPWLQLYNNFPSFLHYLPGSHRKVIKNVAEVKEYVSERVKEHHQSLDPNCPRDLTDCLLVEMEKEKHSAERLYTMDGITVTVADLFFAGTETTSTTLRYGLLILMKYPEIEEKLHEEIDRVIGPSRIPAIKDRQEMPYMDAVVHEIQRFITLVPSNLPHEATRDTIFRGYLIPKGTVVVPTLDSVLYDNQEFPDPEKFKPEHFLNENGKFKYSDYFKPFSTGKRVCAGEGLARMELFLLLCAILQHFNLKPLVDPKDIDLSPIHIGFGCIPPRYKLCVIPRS
T2 sequence (P11712 whole entry): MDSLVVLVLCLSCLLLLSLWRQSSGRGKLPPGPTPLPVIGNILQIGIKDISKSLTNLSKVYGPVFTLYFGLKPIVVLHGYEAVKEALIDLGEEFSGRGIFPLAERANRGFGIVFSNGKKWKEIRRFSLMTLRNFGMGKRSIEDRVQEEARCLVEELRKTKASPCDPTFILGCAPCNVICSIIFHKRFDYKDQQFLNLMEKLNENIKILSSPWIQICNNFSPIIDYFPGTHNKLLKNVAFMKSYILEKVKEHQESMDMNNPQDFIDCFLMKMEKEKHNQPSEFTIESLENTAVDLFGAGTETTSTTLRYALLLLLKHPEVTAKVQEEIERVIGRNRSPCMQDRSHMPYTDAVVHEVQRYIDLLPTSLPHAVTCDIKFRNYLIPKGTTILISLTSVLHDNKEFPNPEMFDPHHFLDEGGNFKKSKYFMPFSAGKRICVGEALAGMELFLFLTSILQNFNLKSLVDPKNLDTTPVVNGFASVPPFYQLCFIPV
T3 sequence (P11509 whole entry): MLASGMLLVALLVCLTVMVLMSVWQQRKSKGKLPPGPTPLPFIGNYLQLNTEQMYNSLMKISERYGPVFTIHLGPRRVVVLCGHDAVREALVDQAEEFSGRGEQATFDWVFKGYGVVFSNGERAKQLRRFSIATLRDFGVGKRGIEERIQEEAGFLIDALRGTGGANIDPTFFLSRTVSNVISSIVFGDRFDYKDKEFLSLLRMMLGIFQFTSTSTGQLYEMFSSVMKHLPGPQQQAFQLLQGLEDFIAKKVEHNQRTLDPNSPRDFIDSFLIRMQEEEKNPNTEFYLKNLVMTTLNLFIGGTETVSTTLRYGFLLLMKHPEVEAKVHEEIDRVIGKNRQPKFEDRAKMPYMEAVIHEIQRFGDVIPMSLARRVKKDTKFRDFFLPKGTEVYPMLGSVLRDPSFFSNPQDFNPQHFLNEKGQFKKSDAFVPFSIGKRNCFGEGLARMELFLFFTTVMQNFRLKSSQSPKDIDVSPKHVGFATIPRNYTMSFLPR

| inhibitory effect on CYP2E1 (in words) [1] | IC50 [1] | IC50 (CYP2C9) | IC50 (CYP2A6) | SMILES |
| --- | --- | --- | --- | --- |
| significant inhibitory effect | 17 µM |  |  | CO/N=C(\C)c1scnc1C [SMI8] |
| slight inhibitory effect | 115 µM |  |  | COc1cccc(/C=C/C(=O)c2scnc2C)c1 [SMI10] |
| significant inhibitory effect | 7.99 µM | 1.86 µM | 55.6 µM | CCc1nc(COC(=O)c2cccn2Cc2ccncc2)cs1 [SMI1] |
